This experiment has as its target SGK1 (human) (UniProt O00141). In words: Flashplate.
Chain of SGK1 (human) (O00141 whole entry, looked up): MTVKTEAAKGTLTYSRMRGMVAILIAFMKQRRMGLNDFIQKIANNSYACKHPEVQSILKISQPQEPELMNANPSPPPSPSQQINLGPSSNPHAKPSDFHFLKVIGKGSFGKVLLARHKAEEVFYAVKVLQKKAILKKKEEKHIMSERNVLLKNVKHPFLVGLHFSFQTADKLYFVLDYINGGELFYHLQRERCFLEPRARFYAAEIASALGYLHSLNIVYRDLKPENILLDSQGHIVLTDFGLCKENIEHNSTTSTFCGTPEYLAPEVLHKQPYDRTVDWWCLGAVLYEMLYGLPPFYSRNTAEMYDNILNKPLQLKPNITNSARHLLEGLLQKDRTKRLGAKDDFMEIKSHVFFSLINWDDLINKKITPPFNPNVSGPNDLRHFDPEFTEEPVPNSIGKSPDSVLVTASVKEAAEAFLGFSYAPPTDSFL
With `CCOc1ccc(NC(=O)Nc2ccc(-c3csc4c(-c5cnn(C)c5)cnc(N)c34)cc2)cc1`, the Ki is > 10 µM.

Turning to `O=C(Nc1ccc(-c2cccc3sncc23)cc1)Nc1ccc(F)c(C(F)(F)F)c1`, the Ki is > 10 µM.

Take `Cc1cc(-c2ccccc2)n(-c2cc(N/N=C/c3ccco3)ncn2)n1`: the Ki is > 10 µM.

As to `NC(=O)c1cccc(-c2cnc3[nH]cc(-c4ccccc4)c3c2)c1`, the inhibition constant Ki turned out to be 0.126 µM.

Consider `Cc1cc(OC2CCCC2)c(NC(=O)Nc2cnc(C#N)cn2)cc1Cl`, for which the Ki is > 10 µM.

As for `CC(C)NC(=O)COc1cccc(-c2nc(Nc3ccc4[nH]ncc4c3)c3ccccc3n2)c1`, the Ki is > 10 µM.

With `COc1cc2c(N3CCN(C(=O)Nc4ccc(OC(C)C)cc4)CC3)ncnc2cc1OCCCN1CCCCC1`, the Ki was > 7.94 µM.

In turn, `O[C@H]1CC[C@H](Nc2nc(Cl)cc(-c3c[nH]c4ncccc34)n2)CC1` showed a Ki of 0.158 µM. In other words, the sub-micromolar range.

For the molecule `COCCN(C)C(=O)c1c(-c2ccc3[nH]ncc3c2)nnn1Cc1ccccc1`, the Ki was found to be 1.58 µM.

Consider `Nc1ncc(-c2ccncc2)c2scc(-c3ccc(NC(=O)Nc4cc(C(F)(F)F)ccc4F)cc3)c12`, for which the Ki was 0.631 µM. This Ki is about 2.5-fold lower than that of the molecule before.

Take `O=C(NCc1ccccc1)c1cccc(-c2cnc3[nH]ccc3c2)c1`: the Ki is > 10 µM.

Turning to `CC(C)(C)C(=O)Oc1ccc2c(c1)nc(NC(=O)c1cccc([N+](=O)[O-])c1)n2CCCO`, the Ki was > 10 µM.

In the case of `Nc1nonc1-n1nnc(C(=O)N/N=C/c2ccncc2)c1-c1ccccc1`, the Ki is > 10 µM.

In the case of `COc1cc(S(C)(=O)=O)c(OC)cc1CC(=O)Nc1cc(N)c(C#N)c(OC(C)C)n1`, the Ki is > 10 µM.

`Nc1n[nH]c2cccc(-c3ccc(NC(=O)Nc4cc(CO)ccc4F)cc3)c12`: the Ki is 0.398 µM.

As for `O=C(N/N=C/c1ccc(O)cc1O)Nc1cccc2nsnc12`, the Ki was 0.126 µM.

Molecule `O=C(NC(CO)c1cc(Cl)cc(Cl)c1)c1ccc(-c2ccncc2)cc1` (configuration not stated) registered a Ki of 3.98 µM.

In turn, `c1cc2[nH]ncc2cc1-c1cn(CC2CCOCC2)nn1` displayed a Ki of 7.94 µM.

On to `CCS(=O)(=O)c1ccc(-c2cncc3sc(C(N)=O)cc23)cc1`, for which the Ki turned out to be 3.98 µM. This Ki is about 2-fold lower than that of the molecule before.

With `NC(=O)c1cccc2[nH]c(-c3ccncc3)nc12`, the Ki was 6.31 µM.

In turn, `Oc1ccc(Nc2[nH]nc(-c3ccc(O)cc3)c2-c2ccc(O)cc2)cc1` had an inhibition constant Ki of 0.1 µM.

`Cc1cccc(NC(=O)Nc2ccc(NC(=O)c3csc4ncnc(N)c34)cc2)c1` returned a Ki of 6.31 µM.

Consider `COc1ccc(-c2ccc(NC(=O)Nc3cccc(Br)c3)cc2)c2c(N)noc12`, for which the Ki is > 10 µM.

`Cc1ccc(Nc2nc3ccc([N+](=O)[O-])cc3[nH]2)nc1`: the inhibitory constant (Ki) is 0.794 µM.

On to `Cc1cccc(NC(=O)Nc2ccc(-c3csc4nc(N)nc(N)c34)cc2)c1`, for which the Ki is > 10 µM.

Regarding `Cc1nccn2c(-c3ccnc(NCC(C)(C)CO)n3)c(-c3ccc(F)cc3F)nc12`, the inhibition constant Ki was > 10 µM.

In the case of `Fc1ccc(-c2nc3sccn3c2-c2ccncc2)cc1`, the Ki is > 10 µM.

In the case of `Cc1cccc(Nc2nc(N[C@@H]3CCCC[C@@H]3N)cnc2C(N)=O)c1`, the Ki was > 7.94 µM.

Turning to `Cc1ccc(NC(=O)Nc2ccc(-c3csc4c(-c5cnn(C)c5)cnc(N)c34)cc2)cc1`, the Ki is > 10 µM.

For `CC(=O)N1CCN(C2CCC(n3nc(-c4ccc(NC(=O)c5cc6ccccc6n5C)cc4)c4c(N)ncnc43)CC2)CC1` (configuration not stated), the Ki is > 10 µM.

For `Oc1ccc(Nc2ncnc3scc(Cl)c23)cc1`, the Ki is > 10 µM.

Take `Cc1cccc(NC(=O)Nc2ccc(-c3csc4c(C#CCN5CCCC5)cnc(N)c34)cc2)c1`: the Ki amounted to 5.01 µM.

For `Cc1n[nH]c2c1C(c1ccccc1I)C(C#N)=C(N)O2` (configuration not stated), the Ki is > 10 µM.

For the molecule `COc1cc(Nc2ncnc3ccc(-c4ccc(CN5C[C@@H]6C(CO)[C@@H]6C5)cc4)cc23)ccc1Oc1ccccc1` (some centres not stated), the Ki is > 10 µM.

On to `C[C@H](Nc1c(Nc2ccncc2)c(=O)c1=O)c1ccccc1`, for which the Ki is > 10 µM.

As to `Nc1nccn2c(C3CC(CN4CCCC4)C3)nc(-c3cccc(OCc4ccccc4)c3)c12` (configuration not stated), the Ki was > 10 µM.

On to `CN(C)c1cc2sncc2cc1NC(=O)C(=O)O`, for which the inhibition constant (Ki) is > 10 µM.

As for `NC(=O)c1cc(Cl)cc2[nH]c(-c3ccc(C4CCCNC4)cc3F)nc12` (configuration not stated), the Ki is > 10 µM.

Take `COCC(C)(C)CNc1nccc(-c2c(-c3ccc(F)cc3)nc3c(C)nccn23)n1`: the Ki was > 10 µM.

`N[C@H](COc1cc(/C=C/c2ccncc2)cnc1Cl)Cc1c[nH]c2ccccc12`: the inhibition constant Ki was > 10 µM.

On to `N#C/C(=C\c1ccc(O)c(O)c1)C(=O)NCc1ccccc1`, for which the Ki was > 10 µM.

Consider `Nc1c(-c2ccccc2)c2cc(Cl)ccc2[nH]c1=O`, for which the Ki is > 10 µM.

On to `N[C@H](COc1cncc(-c2cc3ccncc3s2)c1)Cc1c[nH]c2ccccc12`, for which the Ki is 0.0501 µM.

Molecule `COc1ccc(C(=O)Nc2n[nH]c3ccc(-c4cn(Cc5ccccc5)nn4)cc23)cc1OC` showed a Ki of 1 µM.

For `COc1cc(/C=C(\C#N)c2n[nH]c(N)c2C#N)ccc1O`, the Ki was > 10 µM.

Consider `Fc1ccc(-c2nc3occn3c2-c2ccnc(NC3CCNCC3)n2)cc1`, for which the Ki is > 10 µM.

As for `CCCCn1c(NC(=O)c2cccc(C#N)c2)nc2cc(N(C)C(=O)C3CCCCC3)ccc21`, the Ki is > 10 µM.

Consider `N#Cc1ccc(-c2n[nH]c3c2Cc2ccc(OCCN4CCOCC4)cc2-3)cn1`, for which the Ki is > 10 µM.

As for `c1ccc(Nc2nc(-c3ccc4[nH]ncc4c3)cs2)cc1`, the inhibition constant Ki is 2.51 µM. In other words, the single-digit micromolar range.

Regarding `CCCS(=O)(=O)Nc1ccc(-c2ccc3[nH]nc(NC(=O)CC)c3c2)cc1`, the Ki turned out to be 7.94 µM.

In the case of `CCCC(=O)Nc1nn(C(=O)CC)c2nc3ccccc3cc12`, the Ki is > 10 µM.

On to `O=C1NCc2c1cccc2-c1ccc(Nc2nc3ccccc3o2)cc1`, for which the inhibition constant Ki was > 10 µM.

Regarding `O=C(c1cc(Cc2n[nH]c(=O)c3c2CCCC3)ccc1F)N1CCN(c2ncccn2)CC1`, the Ki is > 10 µM.

For the molecule `O=C(NCCCCCCNC(=O)NCc1cccnc1)NCc1cccnc1`, the Ki is > 10 µM.

Take `CC(C)(CO)CNc1nccc(-c2c(-c3ccc(F)cc3)nc3c(OCC(F)(F)F)nccn23)n1`: the Ki is > 10 µM.

Consider `Cc1ccc(NC(=O)Nc2ccc(-c3csc4ncnc(N)c34)cc2)cc1C`, for which the Ki was > 10 µM.

Regarding `CC(C)(O)Cc1nnc2ccc(-c3c(-c4ccc(F)cc4F)nc4occn34)nn12`, the Ki is > 10 µM.

On to `N#Cc1cnc(NC(=O)Nc2ccc3cc(C(=O)O)ccc3c2)cn1`, for which the Ki was > 10 µM.

Consider `c1ccc(CNc2nc(-c3ccc4[nH]ncc4c3)cs2)cc1`, for which the Ki was > 6.31 µM.

For the molecule `N#Cc1ncc2nc1OCCCCCOc1cc(OCC(O)CO)c(Cl)cc1NC(=O)N2` (configuration not stated), the Ki is > 10 µM.

As to `CCCCn1c(NC(=O)c2ccc(C#N)cc2)nc2cc(N(C)C(=O)C3CCCCC3)ccc21`, the inhibition constant (Ki) was > 10 µM.

The molecule `Cc1n[nH]c2ccc(-c3cncc(OC[C@@H](N)Cc4cccc(OC(F)(F)F)c4)c3)cc12` showed a Ki of 0.316 µM.

For the molecule `Cc1nccn2c(-c3ccnc(NCC(C)(C)C(=O)O)n3)c(-c3ccc(F)cc3F)nc12`, the Ki was > 10 µM.

As for `COc1ccc(/C=C2/S/C(=N/c3ccccc3)NC2=O)cc1OC`, the Ki was > 10 µM.

Take `NC(=O)c1cc2c(-c3cc(C(F)(F)F)cc(C(F)(F)F)c3)cncc2s1`: the inhibition constant Ki was > 10 µM.

On to `O=c1[nH]c2cnc(-n3cnc4ccc(F)cc43)nc2n1[C@@H]1CCOc2c(F)cccc21`, for which the Ki is > 10 µM.

Regarding `O=C(N[C@H](CO)c1ccccc1)c1ccc(-c2ccncc2)cc1`, the Ki was 1.58 µM.

In general, Ki refers to the equilibrium dissociation constant of an inhibitor or competing ligand from its target.

(Values after the kinase profiling compilation of Christmann-Franck et al. (2016).)
